Source: ChEMBL document CHEMBL5506008, “Synthesis and biological evaluation of 1-phenyl-tetrahydro-β-carboline-based first dual PRMT5/EGFR inhibitors as potential anticancer agents” (Eur J Med Chem, 2024)

Experiments:
[1] = biological target: Epidermal growth factor receptor (Homo sapiens, UniProt P00533); assay: Inhibition of wild type GST-tagged EGFR catalytic domain (unknown origin) expressed in insect cells using poly(Glu-Tyr) as substrate incubated for 6 mins by ELISA; parameters: species or system Insect cell
[2] = biological target: Protein arginine N-methyltransferase 5 (Homo sapiens, UniProt O14744); assay: Inhibition of PRMT5 (unknown origin) by radiometric-based scintillation proximity assay
[3] = Metabolic stability in rat liver microsomes assessed as compound remaining at […] measured after 30 mins in presence of NADPH by LC-MS/MS analysis; assay type: ADME, Microsome; conditions: read-out: Stability
[4] = Metabolic stability in human liver microsomes assessed as compound remaining at […] measured after 30 mins in presence of NADPH by LC-MS/MS analysis; assay type: ADME, Microsome; conditions: read-out: Stability
A549 = assay: Antiproliferative activity against human A549 cells assessed as inhibition of cell growth by CCK-8 assay
HeLa = assay: Antiproliferative activity against human HeLa cells assessed as inhibition of cell growth by CCK-8 assay
MDA-MB-231 = assay: Antiproliferative activity against human MDA-MB-231 cells assessed as inhibition of cell growth by CCK-8 assay
MCF7 = assay: Antiproliferative activity against human MCF7 cells assessed as inhibition of cell growth by CCK-8 assay
HepG2 = assay: Antiproliferative activity against human HepG2 cells assessed as inhibition of cell growth by CCK-8 assay
[5] = biological target: Protein arginine N-methyltransferase 1 (Homo sapiens, UniProt Q99873); assay: Inhibition of PRMT1 (unknown origin) using [3H]SAM as substrate preincubated for 15 mins followed by substrate addition and measured after 60 mins by microbeta scintillation counting analysis
[6] = biological target: T1, Histone-arginine methyltransferase CARM1 (Homo sapiens, UniProt Q86X55); assay: Inhibition of PRMT4 (unknown origin) preincubated for 15 mins followed by substrate addition and measured after 60 mins by AlphaLISA assay
T1 sequence (Q86X55 whole entry): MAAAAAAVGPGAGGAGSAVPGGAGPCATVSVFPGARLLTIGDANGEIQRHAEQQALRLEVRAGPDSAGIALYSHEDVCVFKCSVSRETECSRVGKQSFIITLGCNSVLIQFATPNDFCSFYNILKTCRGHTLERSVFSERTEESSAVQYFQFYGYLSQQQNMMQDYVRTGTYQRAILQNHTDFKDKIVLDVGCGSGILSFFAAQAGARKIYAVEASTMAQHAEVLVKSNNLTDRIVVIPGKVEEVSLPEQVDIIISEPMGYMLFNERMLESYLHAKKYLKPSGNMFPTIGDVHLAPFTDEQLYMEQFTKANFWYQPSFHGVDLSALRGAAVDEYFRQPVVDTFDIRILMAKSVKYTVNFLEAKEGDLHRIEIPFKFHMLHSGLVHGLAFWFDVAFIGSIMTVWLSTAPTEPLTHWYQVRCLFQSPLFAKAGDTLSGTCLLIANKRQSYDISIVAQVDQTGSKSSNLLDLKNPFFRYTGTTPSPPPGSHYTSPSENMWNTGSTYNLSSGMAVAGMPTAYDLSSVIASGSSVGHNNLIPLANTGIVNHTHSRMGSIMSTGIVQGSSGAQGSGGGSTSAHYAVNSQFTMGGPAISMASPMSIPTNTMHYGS

Protein arginine N-methyltransferase 5, sequence (O14744 whole entry): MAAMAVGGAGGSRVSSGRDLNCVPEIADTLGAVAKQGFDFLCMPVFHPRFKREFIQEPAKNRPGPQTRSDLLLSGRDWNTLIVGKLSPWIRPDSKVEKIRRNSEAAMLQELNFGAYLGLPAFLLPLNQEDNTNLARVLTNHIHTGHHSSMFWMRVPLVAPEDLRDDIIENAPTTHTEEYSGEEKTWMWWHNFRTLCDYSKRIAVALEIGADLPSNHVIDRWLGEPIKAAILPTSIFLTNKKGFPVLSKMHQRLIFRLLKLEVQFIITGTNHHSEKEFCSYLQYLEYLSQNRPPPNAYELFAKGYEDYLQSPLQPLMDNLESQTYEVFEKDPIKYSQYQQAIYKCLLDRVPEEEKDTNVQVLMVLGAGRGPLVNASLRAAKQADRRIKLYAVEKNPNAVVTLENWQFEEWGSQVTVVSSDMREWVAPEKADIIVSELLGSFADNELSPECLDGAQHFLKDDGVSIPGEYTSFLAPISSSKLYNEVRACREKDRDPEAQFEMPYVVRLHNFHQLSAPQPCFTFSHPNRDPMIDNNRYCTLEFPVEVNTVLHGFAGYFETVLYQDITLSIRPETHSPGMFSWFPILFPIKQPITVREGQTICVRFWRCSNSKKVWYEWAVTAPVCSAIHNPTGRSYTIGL
Epidermal growth factor receptor, sequence (P00533 whole entry, the tested form may be a part): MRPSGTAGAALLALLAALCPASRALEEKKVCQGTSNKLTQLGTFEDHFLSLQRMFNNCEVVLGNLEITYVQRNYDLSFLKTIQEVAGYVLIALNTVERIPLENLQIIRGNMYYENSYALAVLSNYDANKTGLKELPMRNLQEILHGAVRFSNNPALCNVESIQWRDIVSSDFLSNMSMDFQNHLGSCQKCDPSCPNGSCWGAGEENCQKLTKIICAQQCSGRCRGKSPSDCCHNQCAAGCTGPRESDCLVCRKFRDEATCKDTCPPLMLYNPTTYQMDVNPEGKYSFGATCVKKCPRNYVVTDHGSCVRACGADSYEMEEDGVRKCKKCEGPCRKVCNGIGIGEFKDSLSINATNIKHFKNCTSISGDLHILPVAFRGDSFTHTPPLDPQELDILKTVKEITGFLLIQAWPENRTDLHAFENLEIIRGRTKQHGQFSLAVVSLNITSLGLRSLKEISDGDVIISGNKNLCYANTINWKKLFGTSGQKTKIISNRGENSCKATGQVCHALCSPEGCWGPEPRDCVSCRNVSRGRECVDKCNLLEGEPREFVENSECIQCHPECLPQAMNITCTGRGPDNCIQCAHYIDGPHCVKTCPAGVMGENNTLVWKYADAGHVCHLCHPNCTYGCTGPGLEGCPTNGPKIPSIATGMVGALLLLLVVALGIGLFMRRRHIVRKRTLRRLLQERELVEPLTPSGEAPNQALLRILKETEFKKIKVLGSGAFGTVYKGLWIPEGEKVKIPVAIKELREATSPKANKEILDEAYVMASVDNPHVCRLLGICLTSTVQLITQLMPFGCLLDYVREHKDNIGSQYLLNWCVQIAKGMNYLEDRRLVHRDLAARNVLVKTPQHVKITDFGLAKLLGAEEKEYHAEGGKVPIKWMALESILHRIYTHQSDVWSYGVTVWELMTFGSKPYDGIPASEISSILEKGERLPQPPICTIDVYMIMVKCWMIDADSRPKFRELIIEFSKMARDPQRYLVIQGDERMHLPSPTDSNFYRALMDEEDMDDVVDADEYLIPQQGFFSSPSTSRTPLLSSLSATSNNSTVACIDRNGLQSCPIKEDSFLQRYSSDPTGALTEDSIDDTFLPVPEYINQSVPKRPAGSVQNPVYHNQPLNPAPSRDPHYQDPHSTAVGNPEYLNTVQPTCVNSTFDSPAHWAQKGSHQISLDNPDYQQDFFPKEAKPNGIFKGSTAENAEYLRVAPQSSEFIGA
Protein arginine N-methyltransferase 1, sequence (Q99873 whole entry): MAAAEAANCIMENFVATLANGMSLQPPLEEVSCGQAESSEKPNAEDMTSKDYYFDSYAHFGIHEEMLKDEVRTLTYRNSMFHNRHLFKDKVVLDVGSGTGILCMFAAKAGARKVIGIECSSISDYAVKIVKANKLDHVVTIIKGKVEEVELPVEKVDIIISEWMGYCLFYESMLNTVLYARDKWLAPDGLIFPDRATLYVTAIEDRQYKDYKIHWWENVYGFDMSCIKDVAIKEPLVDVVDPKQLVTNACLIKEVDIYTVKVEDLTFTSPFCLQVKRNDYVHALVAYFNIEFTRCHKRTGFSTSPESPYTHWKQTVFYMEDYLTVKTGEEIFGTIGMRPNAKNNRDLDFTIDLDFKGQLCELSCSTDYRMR

Work on `COc1cc(C2NCCc3c2[nH]c2ccccc32)ccc1OCc1ccc(B2OC(C)(C)C(C)(C)O2)cc1` (centres undefined) yielded an IC50 [1] of 85.8 µM and an IC50 [2] of over 100 µM.

In the case of `COc1cc(C2c3[nH]c4ccccc4c3CCN2C)ccc1OC(=O)c1ccccc1` (centres undefined), the IC50 [1] is reported as 87.6 µM and the IC50 [2] is reported as over 100 µM.

Compound `COc1cc(C2NCCc3c2[nH]c2ccccc32)ccc1OCc1ccc(F)c(C#N)c1` (centres undefined) has an IC50 [1] of over 100 µM and an IC50 [2] of over 100 µM.

Work on `O=C(Oc1ccc(C2NCCc3c2[nH]c2ccccc32)cc1)c1ccccc1` (centres undefined) yielded an IC50 [1] of 51.5 µM, a remaining at 0.5 h [3] of 12.3% and an IC50 [2] of 59.7 µM. For the same compound, the remaining at 0.5 h [4] was 16.4%.

`O=C(Nc1ccc(C2NCCc3c2[nH]c2ccccc32)cc1)c1ccc(Cl)cc1` (centres undefined) showed an IC50 [2] of over 100 µM.

Work on `Cc1ccccc1C(=O)Nc1ccc(C2NCCc3c2[nH]c2ccccc32)cc1` (centres undefined) yielded an IC50 [2] of over 100 µM.

`COc1cc(C2NCCc3c2[nH]c2ccccc32)ccc1OCc1ccc(F)c(C(F)(F)F)c1` (centres undefined) showed an IC50 [1] of over 100 µM and an IC50 [2] of over 100 µM.

Work on `COc1cc(C2NCCc3c2[nH]c2ccccc32)ccc1OCc1ccccc1` (centres undefined) yielded an IC50 [1] of over 100 µM and an IC50 [2] of 32.4 µM.

`COC(=O)c1ccc(COc2ccc(C3NCCc4c3[nH]c3ccccc43)cc2OC)c(F)c1` (centres undefined) showed an IC50 [1] of 55.6 µM and an IC50 [2] of over 100 µM.

Compound `Cc1cccc(C(=O)Nc2ccc(C3NCCc4c3[nH]c3ccccc43)cc2)c1` (centres undefined) has an IC50 [2] of over 100 µM.

In the case of `CN1CCc2c([nH]c3ccccc23)C1c1ccc(NC(=O)c2cccc(C(F)(F)F)c2)cc1` (centres undefined), the IC50 [1] is reported as over 100 µM and the IC50 [2] is reported as over 100 µM.

Work on `COc1cc(C2NCCc3c2[nH]c2ccccc32)ccc1OCc1ccc(C#N)cc1F` (centres undefined) yielded an IC50 (A549) of 12.8 µM, an IC50 (HeLa) of 13.3 µM and an IC50 [1] of 80.6 µM. The IC50 (MDA-MB-231) was 6.2 µM, the IC50 (MCF7) was 13.1 µM and the IC50 (HepG2) was over 50 µM. It also gave a remaining at 0.5 h [3] of 35.9%, an IC50 [2] of 70.4 µM and a remaining at 0.5 h [4] of 40.6%.

Work on `O=C(Nc1ccc(C2NCCc3c2[nH]c2ccccc32)cc1)c1cccc(Cl)c1` (centres undefined) yielded an IC50 [2] of 46.3 µM.

For `O=C(Nc1ccc(C2NCCc3c2[nH]c2ccccc32)cc1)c1cccc(F)c1` (centres undefined), the IC50 [1] was 95.2 µM and the IC50 [2] was 71.8 µM.

Compound `CN1CCc2c([nH]c3ccccc23)C1c1ccc(NC(=O)c2cccc(F)c2)cc1` (centres undefined) has an IC50 [1] of over 100 µM and an IC50 [2] of over 100 µM.

Work on `COc1cc(C2NCCc3c2[nH]c2ccccc32)ccc1OCc1ccc(C(C)(C)C)cc1` (centres undefined) yielded an IC50 (A549) of 12.4 µM, an IC50 (HeLa) of 4.43 µM and an IC50 [1] of 25.4 µM. It also gave an IC50 (MDA-MB-231) of 20.5 µM, an IC50 (MCF7) of 3.82 µM and an IC50 (HepG2) of 26.4 µM. The remaining at 0.5 h [3] was 45.4%, the IC50 [2] was 42.8 µM and the remaining at 0.5 h [4] was 50.6%.

Compound `O=C(Nc1ccc(C2NCCc3c2[nH]c2ccccc32)cc1)c1cc(C(F)(F)F)cc(C(F)(F)F)c1` (centres undefined) has an IC50 [2] of over 100 µM.

`O=C(Nc1ccc(C2NCCc3c2[nH]c2ccccc32)cc1)c1ccccc1` (centres undefined) showed an IC50 [1] of 56.3 µM and an IC50 [2] of 74.5 µM.

`COc1cc(COc2ccc(C3NCCc4c3[nH]c3ccccc43)cc2OC)ccc1F` (centres undefined) showed an IC50 [1] of over 100 µM and an IC50 [2] of 23.2 µM.

Work on `O=C(Nc1ccc(C2NCCc3c2[nH]c2ccccc32)cc1)c1ccc(F)cc1` (centres undefined) yielded an IC50 [2] of over 100 µM.

Compound `COc1cc(C2NCCc3c2[nH]c2ccccc32)ccc1OCc1ccc(F)cc1` (centres undefined) has an IC50 [1] of over 100 µM and an IC50 [2] of over 100 µM.

`CN1CCc2c([nH]c3ccccc23)C1c1ccc(NC(=O)c2ccc(F)c(C(F)(F)F)c2)cc1` (centres undefined) showed an IC50 [1] of over 100 µM and an IC50 [2] of over 100 µM.

With `O=C(Nc1ccc(C2NCCc3c2[nH]c2ccccc32)cc1)c1ccc(F)c(C(F)(F)F)c1` (centres undefined) the IC50 [1] was over 100 µM and the IC50 [2] was 66.4 µM.

With `CN1CCc2c([nH]c3ccccc23)C1c1ccc(NC(=O)c2cccc([N+](=O)[O-])c2)cc1` (centres undefined) the IC50 [1] was over 100 µM and the IC50 [2] was over 100 µM.

Work on `O=C(Nc1ccc(C2NCCc3c2[nH]c2ccccc32)cc1)c1ccc(Br)cc1` (centres undefined) yielded an IC50 [2] of over 100 µM.

`COC(=O)c1ccc(COc2ccc(C3NCCc4c3[nH]c3ccccc43)cc2OC)cc1` (centres undefined) showed an IC50 (A549) of 18.7 µM, an IC50 (HeLa) of 13.4 µM and an IC50 [1] of 52 µM. For the same compound, the IC50 (MDA-MB-231) was over 50 µM, the IC50 [5] was over 100 µM and the IC50 [6] was over 100 µM. For the same compound, the IC50 (MCF7) was 13.7 µM, the IC50 (HepG2) was over 50 µM and the remaining at 0.5 h [3] was 5.2%. It also gave an IC50 [2] of 21.3 µM and a remaining at 0.5 h [4] of 10.3%.

`COc1cc(C2NCCc3c2[nH]c2ccccc32)ccc1OCc1ccc(F)cc1Br` (centres undefined) showed an IC50 (A549) of 13.3 µM, an IC50 (HeLa) of 7.15 µM and an IC50 [1] of 74.4 µM. It also gave an IC50 (MDA-MB-231) of 12.9 µM, an IC50 (MCF7) of 7.46 µM and an IC50 (HepG2) of over 50 µM. For the same compound, the remaining at 0.5 h [3] was 66.5%, the IC50 [2] was 36.8 µM and the remaining at 0.5 h [4] was 61.1%.

Compound `CN1CCc2c([nH]c3ccccc23)C1c1ccc(NC(=O)c2cccc(Cl)c2)cc1` (centres undefined) has an IC50 [1] of over 100 µM and an IC50 [2] of over 100 µM.

For `COc1cc(C2NCCc3c2[nH]c2ccccc32)ccc1OCc1ccccc1F` (centres undefined), the IC50 [1] was over 100 µM and the IC50 [2] was 55.7 µM.

In the case of `O=C(Nc1ccc(C2NCCc3c2[nH]c2ccccc32)cc1)c1cccc([N+](=O)[O-])c1` (centres undefined), the IC50 [1] is reported as 60.3 µM and the IC50 [2] is reported as 78.9 µM.

In the case of `O=C(Nc1ccc(C2NCCc3c2[nH]c2ccccc32)cc1)c1ccccc1F` (centres undefined), the IC50 [2] is reported as over 100 µM.

Work on `O=C(Nc1ccc(C2NCCc3c2[nH]c2ccccc32)cc1)c1ccc([N+](=O)[O-])cc1` (centres undefined) yielded an IC50 [2] of over 100 µM.

Work on `COc1cc(C2NCCc3c2[nH]c2ccccc32)ccc1OCc1ccc(OC(F)(F)F)c(Cl)c1` (centres undefined) yielded an IC50 (A549) of 13.1 µM, an IC50 (HeLa) of 6.92 µM and an IC50 [1] of 62.4 µM. For the same compound, the IC50 (MDA-MB-231) was 13.3 µM, the IC50 (MCF7) was 6.59 µM and the IC50 (HepG2) was 40.4 µM. For the same compound, the remaining at 0.5 h [3] was 76.6%, the IC50 [2] was 46.9 µM and the remaining at 0.5 h [4] was 70%.

With `COC(=O)c1ccc(C(=O)Nc2ccc(C3NCCc4c3[nH]c3ccccc43)cc2)cc1` (centres undefined) the IC50 [2] was over 100 µM.

`COc1cc(C2NCCc3c2[nH]c2ccccc32)ccc1OCc1ccc(F)c(Br)c1` (centres undefined) showed an IC50 (A549) of 7.08 µM, an IC50 (HeLa) of 6.86 µM and an IC50 [1] of 51.4 µM. For the same compound, the IC50 (MDA-MB-231) was over 50 µM, the IC50 (MCF7) was 7 µM and the IC50 (HepG2) was 36 µM. The remaining at 0.5 h [3] was 57.8%, the IC50 [2] was 41.3 µM and the remaining at 0.5 h [4] was 65.4%.

`CN1CCc2c([nH]c3ccccc23)C1c1ccc(OC(=O)c2ccccc2)cc1` (centres undefined) gave an IC50 [1] of over 100 µM and an IC50 [2] of over 100 µM.

For `COc1cc(C2NCCc3c2[nH]c2ccccc32)ccc1OCc1ccc(F)cc1Cl` (centres undefined), the IC50 [1] was over 100 µM and the IC50 [2] was 76.4 µM.

`O=C(Nc1ccc(C2NCCc3c2[nH]c2ccccc32)cc1)c1ccc(C(F)(F)F)cc1` (centres undefined) gave an IC50 [2] of over 100 µM.

In the case of `COc1cc(C2NCCc3c2[nH]c2ccccc32)ccc1OC(=O)c1ccccc1` (centres undefined), the IC50 [1] is reported as 42.7 µM, the remaining at 0.5 h [3] is reported as 15.1% and the IC50 [2] is reported as 48.7 µM. It also gave a remaining at 0.5 h [4] of 20.6%.

With `CN1CCc2c([nH]c3ccccc23)C1c1ccc(NC(=O)c2ccccc2)cc1` (centres undefined) the IC50 [1] was over 100 µM and the IC50 [2] was over 100 µM.

Work on `O=C(Nc1ccc(C2NCCc3c2[nH]c2ccccc32)cc1)c1cccc(C(F)(F)F)c1` (centres undefined) yielded an IC50 [1] of 73.7 µM and an IC50 [2] of 87.3 µM.
